According to PubChem BioAssay AID250 (DTP/NCI, 2004):
Where “and” joins values, the source holds several entries; their conditions need not be identical. Equal values may be shown once. Toxic doses and inconclusive results are not listed. How the source made its calls: active means survival T/C of 150% or more; inactive means T/C below 125% in these data.

Tested on: BDF1 mice, L1210 leukemia sc, survival T/C
Experiment: NCI In Vivo Anticancer Drug Screen. Data for tumor model L1210 Leukemia (subcutaneous) in B6D2F1 (BDF1) mice
Conditions: higher = longer survival
How it was run: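 Mice carrying transplanted tumors received test compounds, and survival or tumor size was measured. Values are the treated-group measurement (T) divided by that of the vehicle-treated control group (C).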

[1] = endpoint: median survival time, dose: 14.0 mg/kg/injection, schedule: Q01DX Z (sc), vehicle: carboxymethylcellulose (CMC)
[2] = endpoint: median survival time, dose: 23.0 mg/kg/injection, schedule: Q01DX Z (sc), vehicle: carboxymethylcellulose (CMC)

Measured: T/C

COc1cccc2c1C(=O)c1c(O)c3c(c(O)c1C2=O)C[C@@](O)(C(=O)CO)C[C@@H]3OC1CC(N)C(O)C(C)O1 (some centres not stated)
inactive: endpoint: median survival time, dose: 0.39 mg/kg/injection, schedule: Q03HX008 (ip), vehicle: water 88 % of control | endpoint: median survival time, dose: 0.39 mg/kg/injection, schedule: Q03HX008 (sc), vehicle: water 100 % of control | endpoint: median survival time, dose: 0.65 mg/kg/injection, schedule: Q01DX005 (ip), vehicle: water 95 % of control | endpoint: median survival time, dose: 0.65 mg/kg/injection, schedule: Q01DX005 (sc), vehicle: water 95 % of control | endpoint: median survival time, dose: 0.65 mg/kg/injection, schedule: Q03HX008 (ip), vehicle: water 100 % of control (2×) and 111 % of control | endpoint: median survival time, dose: 1.0 mg/kg/injection, schedule: Q04DX003 (ip), vehicle: saline 92 % of control | endpoint: median survival time, dose: 1.08 mg/kg/injection, schedule: Q01DX005 (ip), vehicle: water 95 % of control | endpoint: median survival time, dose: 1.08 mg/kg/injection, schedule: Q01DX005 (sc), vehicle: water 100 % of control | endpoint: median survival time, dose: 1.08 mg/kg/injection, schedule: Q03HX008 (ip), vehicle: water 100 % of control and 105 % of control and 111 % of control | endpoint: median survival time, dose: 1.8 mg/kg/injection, schedule: Q01DX005 (ip), vehicle: water 100 % of control | endpoint: median survival time, dose: 1.8 mg/kg/injection, schedule: Q01DX005 (sc), vehicle: water 110 % of control | endpoint: median survival time, dose: 1.8 mg/kg/injection, schedule: Q03HX008 (ip), vehicle: water 111 % of control | endpoint: median survival time, dose: 1.8 mg/kg/injection, schedule: Q04DX003 (sc), vehicle: water 111 % of control | endpoint: median survival time, dose: 2.0 mg/kg/injection, schedule: Q04DX003 (ip), vehicle: saline 94 % of control | endpoint: median survival time, dose: 3.0 mg/kg/injection, schedule: Q01DX001 (sc), vehicle: water 111 % of control | endpoint: median survival time, dose: 3.0 mg/kg/injection, schedule: Q01DX005 (sc), vehicle: water 110 % of control | endpoint: median survival time, dose: 3.0 mg/kg/injection, schedule: Q04DX003 (sc), vehicle: water 116 % of control | endpoint: median survival time, dose: 4.0 mg/kg/injection, schedule: Q04DX003 (ip), vehicle: saline 92 % of control | endpoint: median survival time, dose: 5.0 mg/kg/injection, schedule: Q01DX001 (iv), vehicle: water 111 % of control and 115 % of control | endpoint: median survival time, dose: 5.0 mg/kg/injection, schedule: Q01DX001 (sc), vehicle: water 111 % of control | endpoint: median survival time, dose: 5.0 mg/kg/injection, schedule: Q04DX003 (sc), vehicle: water 122 % of control | endpoint: median survival time, dose: 8.0 mg/kg/injection, schedule: Q04DX003 (ip), vehicle: saline 91 % of control | endpoint: median survival time, dose: 8.4 mg/kg/injection, schedule: Q01DX001 (iv), vehicle: water 122 % of control | endpoint: median survival time, dose: 14.0 mg/kg/injection, schedule: Q01DX001 (sc), vehicle: water 111 % of control | endpoint: median survival time, dose: 14.0 mg/kg/injection, schedule: Q04DX003 (sc), vehicle: water 94 % of control | endpoint: median survival time, dose: 23.0 mg/kg/injection, schedule: Q01DX001 (iv), vehicle: water 67 % of control

CCNC(=O)c1cccnc1
inactive: endpoint: median survival time, dose: 8.4 mg/kg/injection, schedule: Q01DX Z (sc), vehicle: water 100 % of control | endpoint: median survival time, dose: 77.8 mg/kg/injection, schedule: Q01DX Z (sc), vehicle: water 100 % of control | endpoint: median survival time, dose: 130.0 mg/kg/injection, schedule: Q01DX Z (sc), vehicle: water 95 % of control | endpoint: median survival time, dose: 216.0 mg/kg/injection, schedule: Q01DX Z (sc), vehicle: water 100 % of control | endpoint: median survival time, dose: 360.0 mg/kg/injection, schedule: Q01DX Z (sc), vehicle: water 100 % of control | endpoint: median survival time, dose: 600.0 mg/kg/injection, schedule: Q01DX Z (sc), vehicle: water 100 % of control | endpoint: median survival time, dose: 1000.0 mg/kg/injection, schedule: Q01DX Z (sc), vehicle: water 109 % of control

COc1cc([C@@H]2c3cc4c(cc3[C@H](O)[C@H]3COC(=O)[C@H]23)OCO4)cc(OC)c1OC
inactive: endpoint: median survival time, dose: 5.0 mg/kg/injection, schedule: Q01DX Z (sc), vehicle: methylcellulose (MC) 109 % of control | endpoint: median survival time, dose: 8.4 mg/kg/injection, schedule: Q01DX Z (sc), vehicle: methylcellulose (MC) 109 % of control | endpoint: median survival time, dose: 14.0 mg/kg/injection, schedule: Q01DX Z (sc), vehicle: methylcellulose (MC) 104 % of control | endpoint: median survival time, dose: 23.0 mg/kg/injection, schedule: Q01DX Z (sc), vehicle: methylcellulose (MC) 109 % of control

O=c1[nH]cc(S)c(=O)[nH]1
inactive: endpoint: median survival time, dose: 23.0 mg/kg/injection, schedule: Q01DX Z (sc), vehicle: other 100 % of control | endpoint: median survival time, dose: 39.0 mg/kg/injection, schedule: Q01DX Z (sc), vehicle: other 100 % of control | endpoint: median survival time, dose: 65.0 mg/kg/injection, schedule: Q01DX Z (sc), vehicle: other 100 % of control | endpoint: median survival time, dose: 108.0 mg/kg/injection, schedule: Q01DX Z (sc), vehicle: other 110 % of control | endpoint: median survival time, dose: 180.0 mg/kg/injection, schedule: Q01DX Z (sc), vehicle: other 110 % of control | endpoint: median survival time, dose: 300.0 mg/kg/injection, schedule: Q01DX Z (sc), vehicle: other 100 % of control

C=CC(COC(C)=O)N1CC1 (configuration not stated)
inactive: endpoint: median survival time, dose: 4.7 mg/kg/injection, schedule: Q01DX Z (sc), vehicle: saline 100 % of control | endpoint: median survival time, dose: 7.8 mg/kg/injection, schedule: Q01DX Z (sc), vehicle: saline 100 % of control | endpoint: median survival time, dose: 13.0 mg/kg/injection, schedule: Q01DX Z (sc), vehicle: saline 100 % of control | endpoint: median survival time, dose: 36.0 mg/kg/injection, schedule: Q01DX Z (sc), vehicle: saline 100 % of control | endpoint: median survival time, dose: 60.0 mg/kg/injection, schedule: Q01DX Z (sc), vehicle: saline 100 % of control

CCC(=O)OCC1OC(n2cnc3c(=S)nc(N)[nH]c32)C(OC(=O)CC)C1OC(=O)CC (configuration not stated)
inactive: endpoint: median survival time, dose: 5.0 mg/kg/injection, schedule: Q01DX Z (sc), vehicle: carboxymethylcellulose (CMC) 100 % of control | [1] 109 % of control | [2] 100 % of control

O=NN(CCF)C(=O)NC12CC3CC(CC(C3)C1)C2
inactive: [1] 100 % of control | [2] 100 % of control
active: endpoint: median survival time, dose: 65.0 mg/kg/injection, schedule: Q01DX Z (sc), vehicle: carboxymethylcellulose (CMC) 388 % of control | endpoint: median survival time, dose: 108.0 mg/kg/injection, schedule: Q01DX Z (sc), vehicle: carboxymethylcellulose (CMC) 200 % of control

CC1CN1CCS(=O)(=O)CCN1CC1C (configuration not stated)
active: endpoint: median survival time, dose: 8.64 mg/kg/injection, schedule: Q01DX Z (sc), vehicle: saline 168 % of control | endpoint: median survival time, dose: 14.4 mg/kg/injection, schedule: Q01DX Z (sc), vehicle: saline 163 % of control
inactive: endpoint: median survival time, dose: 5.18 mg/kg/injection, schedule: Q01DX Z (sc), vehicle: saline 121 % of control | endpoint: median survival time, dose: 24.0 mg/kg/injection, schedule: Q01DX Z (sc), vehicle: saline 115 % of control | endpoint: median survival time, dose: 40.0 mg/kg/injection, schedule: Q01DX Z (sc), vehicle: saline 105 % of control

CCCNc1ncnc2[nH]ncc12
inactive: endpoint: median survival time, dose: 64.8 mg/kg/injection, schedule: Q01DX Z (sc), vehicle: methylcellulose (MC) 120 % of control | endpoint: median survival time, dose: 108.0 mg/kg/injection, schedule: Q01DX Z (sc), vehicle: methylcellulose (MC) 110 % of control | endpoint: median survival time, dose: 180.0 mg/kg/injection, schedule: Q01DX Z (sc), vehicle: methylcellulose (MC) 100 % of control | endpoint: median survival time, dose: 300.0 mg/kg/injection, schedule: Q01DX Z (sc), vehicle: methylcellulose (MC) 100 % of control | endpoint: median survival time, dose: 500.0 mg/kg/injection, schedule: Q01DX Z (sc), vehicle: methylcellulose (MC) 100 % of control

COc1cc(NS(C)(=O)=O)ccc1Nc1c2ccccc2nc2ccccc12
inactive: endpoint: mean survival time, dose: 0.75 mg/kg/injection, schedule: Q01DX009 (ip), vehicle: saline 97 % of control | endpoint: mean survival time, dose: 1.25 mg/kg/injection, schedule: Q01DX009 (ip), vehicle: saline 100 % of control | endpoint: mean survival time, dose: 1.5 mg/kg/injection, schedule: Q01DX009 (ip), vehicle: saline 99 % of control | endpoint: mean survival time, dose: 2.5 mg/kg/injection, schedule: Q01DX009 (ip), vehicle: saline 104 % of control | endpoint: mean survival time, dose: 3.0 mg/kg/injection, schedule: Q01DX009 (ip), vehicle: saline 110 % of control | endpoint: mean survival time, dose: 5.0 mg/kg/injection, schedule: Q01DX009 (ip), vehicle: saline 103 % of control and 112 % of control | endpoint: mean survival time, dose: 6.0 mg/kg/injection, schedule: Q01DX009 (ip), vehicle: saline 110 % of control | endpoint: mean survival time, dose: 10.0 mg/kg/injection, schedule: Q01DX009 (ip), vehicle: saline 100 % of control | endpoint: median survival time, dose: 0.5 mg/kg/injection, schedule: Q01DX009 (ip), vehicle: other 103 % of control | endpoint: median survival time, dose: 1.0 mg/kg/injection, schedule: Q01DX009 (ip), vehicle: other 102 % of control | endpoint: median survival time, dose: 2.0 mg/kg/injection, schedule: Q01DX009 (ip), vehicle: other 103 % of control | endpoint: median survival time, dose: 4.0 mg/kg/injection, schedule: Q01DX009 (ip), vehicle: other 118 % of control
